Results on ten molecules are retold here after ChEMBL document CHEMBL1201862, “PubChem BioAssay data set” (2004).

Each structure is given as a SMILES string.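 Compound exposure: 48 hours, 5 concentrations, 96-well plates. GI50: concentration for 50% inhibition of growth.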 Activity calls are given as the source filed them. Rule as the data show it: active = GI50 up to about 1.1 µM and inactive = higher. A value given as a limit tells only on which side of the number the result lay.

Holding throughout (experiment): inhibition of tumour cell growth, NCI panel, 48 h
Experiment [1] concerns CAKI-1.
Experiment [2] concerns SK-OV-3.
Experiment [3] deals with RXF 393.
Experiment [4] deals with UO-31.
Experiment [5] deals with SK-MEL-28.
The test system of experiment [6] is HCT-116.
For experiment [7], the system named is HL-60.
In experiment [8] the test system is KM12.
Experiment [9] concerns OVCAR-3.
Experiment [10] relates to OVCAR-4.
The subject of experiment [11] is CCRF-CEM.
Experiment [12] concerns MDA-MB-231.
Experiment [13] concerns SK-MEL-5.
The test system of experiment [14] is K562.
The test system of experiment [15] is HOP-62.
Experiment [16] has as its system U-251.
Experiment [17] relates to NCI-H460.
The test system of experiment [18] is PC-3.
For experiment [19], the system named is SF-539.
For experiment [20], the system named is TK-10.

As for `NNC(=O)CCSc1ccccc1`, the GI50 in [1], in experiment [2], in [3], in experiment [4], in [5] and in experiment [6] was > 100 µM (inactive) in each case. Also, the GI50 in experiment [7], in experiment [8], in [9], in experiment [10], in experiment [11] and in [12] was > 100 µM (inactive) throughout. Also, the GI50 in [13], in [14], in experiment [15], in experiment [16], in experiment [17] and in experiment [18] was > 100 µM (inactive) throughout. Moreover, the GI50 in [19] and in experiment [20] was > 100 µM (inactive) in each case.

For the molecule `CCc1ccccc1NC(=O)C(C#N)C1=C(Cl)C(=O)c2ccccc2C1=O` (stereo not given), the GI50 was 20.3 µM (inactive) in [1]; 36.6 µM (inactive) in experiment [2]; 20.5 µM (inactive) in experiment [3]; 13 µM (inactive) in [4]; 16.9 µM (inactive) in experiment [5]; 13 µM (inactive) in experiment [6]. Besides, the GI50 is 26.2 µM (inactive) in [7]; 13.5 µM (inactive) in [8]; 5.69 µM (inactive) in experiment [9]; 13.6 µM (inactive) in [10]; 3.41 µM (inactive) in experiment [11]; 7.03 µM (inactive) in experiment [12]. For the same molecule, the GI50 in experiment [13] was 15.3 µM (inactive); in [14] it was 8.04 µM (inactive); in experiment [15], 19.1 µM (inactive); in experiment [16], 15.4 µM (inactive); in experiment [17], 19.7 µM (inactive); in experiment [18], 14.6 µM (inactive). For the same molecule, the GI50 in experiment [19] is 18.9 µM (inactive); in [20] it was 18.7 µM (inactive).

On to `CSc1nc2ccccc2c(=O)n1-c1cccc(C)c1`, for which the GI50 in [1] was 95.1 µM (inactive); in experiment [2] it was > 100 µM (inactive); in experiment [3], 81.8 µM (inactive); in experiment [4] it was 0.364 µM (active); in [5] it was > 100 µM (inactive); in experiment [6] it was 47.8 µM (inactive). The GI50 in experiment [7] was 2.58 µM (inactive); in [8], 45.3 µM (inactive); in experiment [9], > 100 µM (inactive); in experiment [10] it was 86.7 µM (inactive); in experiment [11], 32.6 µM (inactive); in experiment [12] it was > 100 µM (inactive). Also, the GI50 in [13] is 21.9 µM (inactive); in experiment [14], 33 µM (inactive); in [15], > 100 µM (inactive); in experiment [16], > 100 µM (inactive); in experiment [17], 36 µM (inactive); in experiment [18], 46.6 µM (inactive). The GI50 was 78.9 µM (inactive) in experiment [19] and > 100 µM (inactive) in experiment [20].

On to `N#C/C(C(=O)NCc1ccccc1)=C(/N)N1CCCC1`, for which the GI50 is 39.6 µM (inactive) in experiment [1]; > 100 µM (inactive) in experiment [2]; > 100 µM (inactive) in [3]; 46.3 µM (inactive) in experiment [4]; > 100 µM (inactive) in experiment [5]; > 100 µM (inactive) in [6]. The GI50 in experiment [7], in experiment [8], in [9], in experiment [10], in [11] and in experiment [12] was > 100 µM (inactive) in each case. The GI50 in [13], in experiment [14], in experiment [15], in [16], in [17] and in experiment [18] was > 100 µM (inactive) throughout. Moreover, the GI50 in [19] and in [20] was > 100 µM (inactive) each time.

As to `NCC(=O)C(O)C(O)C(O)CO` (stereo not given), the GI50 in [1], in experiment [2], in experiment [3], in [4], in [5] and in experiment [6] was > 100 µM (inactive) in each case. Moreover, the GI50 in experiment [7], in experiment [8], in experiment [9], in experiment [10], in [11] and in experiment [12] was > 100 µM (inactive) each time. Also, the GI50 in experiment [13], in experiment [14], in experiment [15], in experiment [16], in [17] and in [18] was > 100 µM (inactive) each time. Further, the GI50 in [19] and in experiment [20] was > 100 µM (inactive) throughout.

Turning to `COc1cc2c(cc1OC)C(=O)/C(=C/c1ccccc1)CC2`, the GI50 was 17.1 µM (inactive) in experiment [1]; 25.5 µM (inactive) in [2]; > 100 µM (inactive) in [3]; > 100 µM (inactive) in [4]; 64.9 µM (inactive) in [5]; 23.8 µM (inactive) in experiment [6]. Besides, the GI50 was 0.0426 µM (active) in experiment [7]; 14.4 µM (inactive) in [8]; 37.6 µM (inactive) in [9]; 62.4 µM (inactive) in [10]; 5.83 µM (inactive) in [11]; > 100 µM (inactive) in [12]. The GI50 in [13] is 17.1 µM (inactive); in experiment [14] it was 34.4 µM (inactive); in experiment [15], > 100 µM (inactive); in [16], 53.2 µM (inactive); in experiment [17] it was 26.9 µM (inactive); in experiment [18], 42.5 µM (inactive). Further, the figures for the GI50 in experiment [19] and in [20] were 47.5 µM (inactive) and 33.4 µM (inactive), respectively.

On to `N=C1/C(=C/c2ccco2)C(=O)N=C2SC=NN12`, for which the GI50 in experiment [1], in [2], in [3], in experiment [4], in [5] and in experiment [6] was > 100 µM (inactive) in each case. Also, the GI50 in experiment [7], in experiment [8], in experiment [9], in experiment [10], in [11] and in [12] was > 100 µM (inactive) each time. The GI50 in experiment [13], in experiment [14], in experiment [15], in [16], in [17] and in experiment [18] was > 100 µM (inactive) throughout. The GI50 in experiment [19] and in [20] was > 100 µM (inactive) throughout.

As to `Nc1cccc2cc(Cl)cnc12`, the GI50 was > 100 µM (inactive) in experiment [1]; > 100 µM (inactive) in experiment [2]; > 100 µM (inactive) in experiment [3]; 26.7 µM (inactive) in experiment [4]; > 100 µM (inactive) in experiment [5]; > 100 µM (inactive) in experiment [6]. The GI50 in [7] was 22.8 µM (inactive); in experiment [8] it was > 100 µM (inactive); in [9], 96.8 µM (inactive); in experiment [10] it was > 100 µM (inactive); in [11] it was 16.1 µM (inactive); in experiment [12], > 100 µM (inactive). Further, the GI50 in experiment [13] is > 100 µM (inactive); in experiment [14], > 100 µM (inactive); in experiment [15], > 100 µM (inactive); in [16] it was > 100 µM (inactive); in experiment [17], > 100 µM (inactive); in [18], 97.1 µM (inactive). For the same molecule, the GI50 in experiment [19] and in experiment [20] was > 100 µM (inactive) in each case.

As for `COc1cc2cc(C(=O)N3CC(CCl)c4ccc([N+](C)(C)Cc5ccc([N+](=O)[O-])cc5)cc43)[nH]c2c(OC)c1OC` (stereo not given), the GI50 was 2.05 µM (inactive) in experiment [1]; 2.28 µM (inactive) in experiment [2]; 1.36 µM (inactive) in experiment [3]; 2.1 µM (inactive) in experiment [4]; 9.29 µM (inactive) in experiment [5]; 1.83 µM (inactive) in experiment [6]. Moreover, the GI50 in experiment [7] was 2.04 µM (inactive); in [8], 2.77 µM (inactive); in experiment [9], 1.96 µM (inactive); in [10] it was 3.09 µM (inactive); in experiment [11] it was 2.01 µM (inactive); in experiment [12], 7.55 µM (inactive). The GI50 in [13] was 1.71 µM (inactive); in experiment [14], 1.92 µM (inactive); in [15], 4.92 µM (inactive); in experiment [16] it was 2.71 µM (inactive); in [17], 1.52 µM (inactive); in experiment [18] it was 2.09 µM (inactive). Moreover, the figures for the GI50 in experiment [19] and in [20] were 1.78 µM (inactive) and 1.86 µM (inactive), respectively.

Consider `COC(=O)[C@@H]1CN(C(C)=O)C(=O)N1C(=O)OCc1ccccc1`, for which the GI50 in [1], in experiment [2], in experiment [3], in experiment [4], in experiment [5] and in experiment [6] was > 100 µM (inactive) each time. The GI50 in experiment [7], in experiment [8], in experiment [9], in experiment [10], in [11] and in experiment [12] was > 100 µM (inactive) each time. Further, the GI50 in experiment [13], in [14], in experiment [15], in experiment [16], in experiment [17] and in experiment [18] was > 100 µM (inactive) each time. Further, the GI50 in experiment [19] and in experiment [20] was > 100 µM (inactive) in each case.
